# From patent US20250205268A1, “TREATMENT OF VIRUSES WITH ANTIVIRAL NUCLEOSIDES” (priority 2021, published 2025)
# Entries after “also recorded” stand apart in the source; their conditions may differ. Like-named read-outs stand apart in the source and are kept apart here.
# Legend:
# [1] = format: in vivo; details: nonclinical studies
# [2] = system: SARS-CoV-2; format: in vivo
# [3] = system: SARS-CoV-2 RNA; format: in vivo; details: for SARS-CoV-2 RNA titer, mean / SARS-CoV-2 RNA titer, mean change from baseline: interim
# [4] = system: SARS-CoV-2; format: in vivo; remark: listed apart in the source
# [5] = system: H1N1
# [6] = system: SARS-CoV-2
# [7] = Part 2 interim analysis, MITT, 800 mg twice daily 5 days
# [8] = Part 2 interim analysis, versus placebo
# [9] = Part 2 interim, post-hoc sensitivity analysis, MITT
# [10] = baseline RNA titer >10^6 copies/ml, Day 3
# [11] = baseline RNA titer >10^6 copies/ml, Day 10
# [12] = baseline RNA titer >10^6 copies/ml, Day 15
# [13] = baseline RNA titer >10^6 copies/ml, Day 29
# [14] = baseline RNA titer >10^6 copies/ml, EOT (Day 5)
# [15] = baseline RNA titer ≤10^6 copies/ml, Day 3
# [16] = baseline RNA titer ≤10^6 copies/ml, Day 10
# [17] = baseline RNA titer ≤10^6 copies/ml, Day 15
# [18] = baseline RNA titer ≤10^6 copies/ml, Day 29
# [19] = baseline RNA titer ≤10^6 copies/ml, EOT (Day 5)
# [20] = MITT population, through day 29
# [21] = safety population, all postbaseline visits through day 29
# [22] = subgroup hospitalized after randomization, vs placebo
structure (smiles),measurement,setting,value
"CC(C)C(=O)OC[C@H]1O[C@@H](n2ccc(NO)nc2=O)[C@H](O)[C@@H]1O [Compound A, {(2R,3S,4R,5R)-3,4-dihydroxy-5-[4-(hydroxyimino)-2-oxo-3,4-dihydropyrimidin-1 (2H)-yl]oxolan-2-yl}methyl 2-methylpropanoate]",pancreatic toxicity (pathology changes in the pancreas),[1],No test-article related pathology changes in the pancreas
same,deaths through Day 29,[2]; Part 2 interim analysis,No participants in the Compound A group died; also recorded: No deaths were reported
same,relative reduction in the percentage of participants hospitalized or died through Day 29,[2]; Part 2 interim analysis,~50%
same,treatment difference (Compound A minus placebo) in hospitalization or death at day 29,"[2]; Part 2 interim analysis (28 of 385 vs 53 of 377), MITT",−6.8 percentage points
same,hazard ratio for hospitalization/death through Day 29,"[2]; Part 2 interim analysis, MITT",0.51
same,reduction in the risk of hospitalization/death through Day 29 (time-to-event analysis),"[2]; Part 2 interim analysis, MITT",~50%
same,participants hospitalized or died through Day 29,[2]; [7],7.3%
same,reduction in the risk of hospitalization or death through Day 29 compared with placebo,[2]; [7],6.8 percentage point
same,participants hospitalized or died through Day 29,"[2]; Part 2 interim analysis, subgroup positive for SARS-CoV-2 antibodies at baseline",2.9%
same,progression of COVID-19 signs/symptoms,[2]; [8],lower percentage of participants in the Compound A than the placebo group reported progression
same,sustained improvement/resolution of self-reported COVID-19 signs/symptoms,[2]; [8],higher percentage of participants in the Compound A group achieved earlier sustained improvement/resolution
same,"COVID-19-related hospitalizations and/or deaths through Day 29, n (%)",[2]; [9],25 (6.5) n (%)
same,Unadjusted difference vs placebo in COVID-19-related hospitalizations and/or deaths,[2]; [9],−6.8
same,Adjusted difference in rates % (95% CI) vs placebo in COVID-19-related hospitalizations and/or deaths,"[2]; Part 2 interim, post-hoc sensitivity analysis, MITT, Miettinen & Nurminen","−6.8 (−11.1, −2.6) %"
same,Covid-19 signs and symptoms versus placebo,[2]; final,sustained abatement or resolution was more likely
same,deaths reported through day 29,[2]; final,One
same,29-day all-cause mortality,[2]; final all-randomized MITT,0.1%
same,difference vs placebo in hospitalization or death through day 29,[2]; final all-randomized MITT,−3.0 percentage points
same,hazard ratio for hospitalization or death through day 29,[2]; final all-randomized MITT,0.69
same,rate of hospitalization or death through day 29 lower than placebo (time-to-event analysis),[2]; final all-randomized MITT,approximately 31%
same,participants hospitalized or died through day 29,"[2]; final all-randomized MITT (48 of 709), 800 mg twice daily 5 days",6.8%
same,"risk of hospitalization or death through day 29 lower than placebo, adjusted for participant sex","[2]; final, post hoc analysis",2.8 percentage points
same,difference vs placebo in Covid-19-related hospitalizations or deaths,"[2]; final, prespecified supporting analysis",−2.8 percentage points
same,participants with Covid-19-related hospitalizations or deaths,"[2]; final, prespecified supporting analysis (45 of 709)",6.3%
same,risk of death lower than with placebo,"[2]; final, through day 29",89%
same,reductions in viral load from baseline versus placebo,[3]; Part 2 interim analysis,significantly greater reductions in viral load from baseline at Days 3 and 5 than placebo
same,reductions from baseline in mean viral load versus placebo,"[3]; final all-randomized analysis, days 3, 5 (end-of-treatment visit), and 10",greater reductions from baseline in mean viral load than placebo
same,"SARS-CoV-2 RNA titer, mean","[3]; MITT, Baseline",6.85 log^10 copies/ml
same,"SARS-CoV-2 RNA titer, mean","[3]; MITT, Day 3",5.82 log^10 copies/ml
same,"SARS-CoV-2 RNA titer, mean change from baseline","[3]; MITT, Day 3",−1.04 log^10 copies/ml
same,"SARS-CoV-2 RNA titer, mean","[3]; MITT, Day 10",3.70 log^10 copies/ml
same,"SARS-CoV-2 RNA titer, mean change from baseline","[3]; MITT, Day 10",−3.18 log^10 copies/ml
same,"SARS-CoV-2 RNA titer, mean","[3]; MITT, Day 15",3.20 log^10 copies/ml
same,"SARS-CoV-2 RNA titer, mean change from baseline","[3]; MITT, Day 15",−3.69 log^10 copies/ml
same,"SARS-CoV-2 RNA titer, mean","[3]; MITT, Day 29",2.90 log^10 copies/ml
same,"SARS-CoV-2 RNA titer, mean change from baseline","[3]; MITT, Day 29",−4.08 log^10 copies/ml
same,"SARS-CoV-2 RNA titer, mean","[3]; MITT, EOT (Day 5)",4.80 log^10 copies/ml
same,"SARS-CoV-2 RNA titer, mean change from baseline","[3]; MITT, EOT (Day 5)",−2.09 log^10 copies/ml
same,"SARS-CoV-2 RNA titer, mean","[3]; baseline RNA titer >10^6 copies/ml, Baseline",7.71 log^10 copies/ml
same,"SARS-CoV-2 RNA titer, mean",[3]; [10],6.56 log^10 copies/ml
same,"SARS-CoV-2 RNA titer, mean change from baseline",[3]; [10],−1.17 log^10 copies/ml
same,"SARS-CoV-2 RNA titer, mean",[3]; [11],3.94 log^10 copies/ml
same,"SARS-CoV-2 RNA titer, mean change from baseline",[3]; [11],−3.79 log^10 copies/ml
same,"SARS-CoV-2 RNA titer, mean",[3]; [12],3.26 log^10 copies/ml
same,"SARS-CoV-2 RNA titer, mean change from baseline",[3]; [12],−4.47 log^10 copies/ml
same,"SARS-CoV-2 RNA titer, mean",[3]; [13],2.93 log^10 copies/ml
same,"SARS-CoV-2 RNA titer, mean change from baseline",[3]; [13],−4.87 log^10 copies/ml
same,"SARS-CoV-2 RNA titer, mean",[3]; [14],5.25 log^10 copies/ml
same,"SARS-CoV-2 RNA titer, mean change from baseline",[3]; [14],−2.49 log^10 copies/ml
same,"SARS-CoV-2 RNA titer, mean","[3]; baseline RNA titer ≤10^6 copies/ml, Baseline",4.58 log^10 copies/ml
same,"SARS-CoV-2 RNA titer, mean",[3]; [15],3.88 log^10 copies/ml
same,"SARS-CoV-2 RNA titer, mean change from baseline",[3]; [15],−0.67 log^10 copies/ml
same,"SARS-CoV-2 RNA titer, mean",[3]; [16],3.05 log^10 copies/ml
same,"SARS-CoV-2 RNA titer, mean change from baseline",[3]; [16],−1.49 log^10 copies/ml
same,"SARS-CoV-2 RNA titer, mean",[3]; [17],3.01 log^10 copies/ml
same,"SARS-CoV-2 RNA titer, mean change from baseline",[3]; [17],−1.51 log^10 copies/ml
same,"SARS-CoV-2 RNA titer, mean",[3]; [18],2.81 log^10 copies/ml
same,"SARS-CoV-2 RNA titer, mean change from baseline",[3]; [18],−1.76 log^10 copies/ml
same,"SARS-CoV-2 RNA titer, mean",[3]; [19],3.56 log^10 copies/ml
same,"SARS-CoV-2 RNA titer, mean change from baseline",[3]; [19],−1.00 log^10 copies/ml
same,proportion of participants who had a COVID-19-related acute care visit,[4]; [20],6.6%
same,proportion of participants who had an acute care visit,[4]; [20],7.2%
same,"RRR, COVID-19-related acute care visit","[4]; MITT population, vs placebo",33.8%
same,"RRR, acute care visit","[4]; MITT population, vs placebo",32.1%
same,"RRR, all respiratory interventions","[4]; MITT population, vs placebo",34.3%
same,"RRR, high-flow heated and humidified device","[4]; MITT population, vs placebo",26.1%
same,"RRR, invasive mechanical ventilation","[4]; MITT population, vs placebo",64.1%
same,"RRR, noninvasive mechanical ventilation","[4]; MITT population, vs placebo",75.4%
same,"RRR, oxygen therapy with conventional oxygen","[4]; MITT population, vs placebo",23.6%
same,mean change from baseline in CRP values versus placebo,[4]; [21],earlier and larger reductions
same,mean change from baseline in SpO2 values versus placebo,[4]; [21],earlier and larger improvements
same,median time to hospital discharge,[4]; subgroup hospitalized after randomization,9 days
same,"RRR, all respiratory interventions",[4]; [22],21.3%
same,"RRR, conventional oxygen",[4]; [22],12.8%
same,"RRR, high-flow heated and humidified device",[4]; [22],−4.7%
same,"RRR, invasive mechanical ventilation",[4]; [22],49.2%
same,"RRR, noninvasive mechanical ventilation",[4]; [22],65.1%
same,number of doses sufficient to demonstrate efficacy,"[5]; administered every 12 hours, ferret model of influenza",Three
same,dose demonstrating efficacy against H1N1,[5]; ferrets,7 mg/kg BID
same,participants with serious adverse events resulting in hospitalization,400-mg group,3.2%
same,participants with serious adverse events resulting in hospitalization,800-mg group,1.8%
same,incidence of treatment-associated adverse events,800-mg group compared with the other groups,lowest
same,adverse events that led to discontinuation,Compound A groups combined,1.4%
same,adverse events,"all doses, similar to placebo","few, and mainly low-grade"
same,Grade 3 or higher adverse events,combined Compound A groups,5.0%
same,hematology or clinical chemistry data,during the study,no dose-related trends
same,"hematological, pancreatic, or hepatic parameters","[6]; Part 1, as a function of dose or treatment",no clinically meaningful abnormalities
same,dose-limiting toxicity,"[6]; highest dose (800 mg), eDMC review of IA2 data",no dose-limiting toxicity was observed
same,SARS-CoV-2 VL compared with placebo,[6]; in vivo,reduces the SARS-CoV-2 VL compared with placebo
same,tolerability,[6]; non-hospitalized participants in Part 1,well-tolerated
